In patent US8268854B2, “Aza-beta-carbolines and methods of using same” (The UWM Research Foundation, Inc., priority 2008, dated 2012):
Structures can show the parent of a compound that is named as a salt.

Key:
Histamine receptor H2 = target: T1, Histamine receptor H2 (Homo sapiens, UniProt P25021); assay: PDSP primary radioligand binding assay; settings: compound 10 μM; for mean percentage inhibition, Histamine receptor H2: n=4, hydrochloride, 10 µM
T1 construct: expressed in transfected cells
Procedure: Primary and secondary radioligand binding assays are performed. In general, the primary assay is run at very high ligand (compound) concentration as a broad screen to determine whether a compound binds to a particular receptor. If greater than 50% inhibition at 10 μM (high concentration of compound) at a particular receptor is determined, a secondary assay is performed on that receptor. Data from the secondary assay is the binding affinity (Ki value).
A solution of the compound to be tested is prepared as a 1 mg/ml stock in Standard Binding Buffer or dimethyl sulfoxide (DMSO) according to its solubility. A similar stock of a reference compound (positive control) is also prepared.
Radioligand (radioligands are presented in Table 39) is diluted to five times the assay concentration (assay concentrations are presented in Table 39) in Standard Binding Buffer. Typically, the assay concentration of radioligand is a value between one half the KD and the KD of a particular radioligand at its target. Aliquots (50 μL) of radioligand are dispensed into the wells of a 96-well plate (see FIG. 11) containing 100 μL of Standard Binding Buffer (Table 40). Then, duplicate 50 μL aliquots of the test and reference compound dilutions are added (see FIG. 11). According to FIG. 11, increasing concentrations (from left to right) of reference or test compound (diluted in buffer) are added (50 μL aliquots, in duplicate) from 5× stock solutions to wells containing 50 μL of 5× radioligand (fixed concentration, prepared in buffer) and 100 μL of buffer. Finally, 50 μL of receptor-containing membrane homogenate (5× suspension in buffer) are added to achieve a final assay volume of 250 μL. Final concentrations of reference or test compound are listed above the columns in FIG. 11.
Finally, crude membrane fractions of cells expressing recombinant target (prepared from 10 cm plates by harvesting phosphate buffered saline (PBS)-rinsed monolayers, resuspending and lysing in chilled, hypotonic 50 mM Tris-HCl, pH 7.4, centrifuging at 20,000×g, decanting the supernatant and storing at −80° C.; typically, one 10 cm plate provides sufficient material for 24 wells) are resuspended in 3 mL of chilled Standard Binding Buffer and homogenized by several passages through a 26 gauge needle, and then 50 μL are dispensed into each well.
The 250 μL reactions are incubated at room temperature and shielded from light (to prevent photolysis of light-sensitive ligands) for 1.5 hours, then harvested by rapid filtration onto Whatman GF/B glass fiber filters pre-soaked with 0.3% polyethyleneimine using a 96-well Brandel harvester. Four rapid 500 μL washes are performed with chilled Standard Binding Buffer to reduce non-specific binding. Filters are placed in 6 mL scintillation tubes and allowed to dry overnight. The next day, 4 mL of EcoScint scintillation cocktail (National Diagnostics) are added to each tube. The tubes are capped, labeled, and counted by liquid scintillation counting. For higher throughput assays, bound radioactivity is harvested onto 0.3% polyethyleneimine-treated, 96-well filter mats using a 96-well Filtermate harvester. The filter mats are dried, then scintillant is melted onto the filters, and the radioactivity retained on the filters is counted in a Microbeta scintillation counter.
Raw data (dpm) representing total radioligand binding (i.e., specific+non-specific binding) are plotted as a function of the logarithm of the molar concentration of the competitor (i.e., test or reference compound). […]

Male P rats = assay: Animal model of excessive (binge) alcohol consumption, operant alcohol responding; assay type: in vivo, rat; settings: N=5 per compound, oral gavage, lever press for alcohol, FIG. 13, FIG. 14
Procedure: Male P rats are used as subjects. All animals are individually housed in shoebox cages in a temperature- and humidity-controlled room on a 12 h:12 h light/dark cycle (lights on at 8:00 AM, off at 8:00 PM) with food and water available ad libitum. All behavioral training and testing take place between 8:00 AM and 10:00 AM. All procedures are conducted in accordance with the NIH Guide for the Care and Use of Laboratory Animals.
10% (v/v) EtOH and 3% (w/v) sucrose solutions are prepared using previously published procedures (Harvey et al. J. Neurosci. 2002, 22, 3765-3775; June et al. Neuropsychopharmacology 2003, 28, 2124-2137) with deionized water. The solutions are prepared daily. Compounds are administered by oral gavage (20-60 mg/kg) in all studies (e.g., alcohol responding, sucrose responding) as indicated in FIG. 12. The compounds are mixed in deionized water and administered by gavage in an injection volume of 1 mL/kg 25 min prior to the behavioral task. […]
Approximately 100 μL of whole blood is collected from a rat's tail tip into a heparin-coated microsample tube. […] The results are calculated in units of mg/dL and printed within 20 s of each trial as previously reported (Harvey et al., J. Neurosci. 2002, 22, 3765-3775; June et al. Neuropsychopharmacology 2003, 28, 2124-2137). […]

T1 sequence (P25021 whole entry): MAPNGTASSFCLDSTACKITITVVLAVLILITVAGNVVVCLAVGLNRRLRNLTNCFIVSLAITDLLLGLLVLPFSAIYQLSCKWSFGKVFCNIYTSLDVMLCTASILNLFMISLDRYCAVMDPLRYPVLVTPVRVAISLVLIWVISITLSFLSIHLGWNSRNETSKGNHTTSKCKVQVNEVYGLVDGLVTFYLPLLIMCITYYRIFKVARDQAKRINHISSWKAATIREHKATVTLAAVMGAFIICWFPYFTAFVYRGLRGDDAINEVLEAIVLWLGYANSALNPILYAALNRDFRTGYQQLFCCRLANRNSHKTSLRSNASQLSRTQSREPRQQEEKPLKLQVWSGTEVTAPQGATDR

| SMILES | mean percentage inhibition, Histamine receptor H2 (Histamine receptor H2) [%] | inhibition at 10 µM (Histamine receptor H2; n=4, read-out: mean percentage inhibition, Histamine receptor H2) [%] | effect on excessive alcohol consumption (Male P rats) |
| --- | --- | --- | --- |
| CCCOc1cc2c(cn1)[nH]c1ccncc12 [Compound 2, 8-Propoxypyridino[4′,3′-5,4]pyrrolo[3,2-c]pyridine hydrochloride] | 31.4 | < 50 | Reduce Excessive Alcohol Consumption |
| CCCOc1cc2c(cn1)[nH]c1cnccc12 [Compound 4, 3-Propoxy pyridino[4′,3′-4,5]pyrrolo[2,3-c]pyridine hydrochloride] | 26.8 | – | Reduce Excessive Alcohol Consumption |
